In ChEMBL document CHEMBL4304809 (ACS Med Chem Lett, 2019):
≈ marks a conversion by molar mass, not a printed value. Calls of active or inactive are those of the source. The rule behind the calls is not given here.

Tests used:
[1] = target: Mitogen-activated protein kinase kinase kinase 14 (Homo sapiens, UniProt Q99558); assay: Inhibition of NIK (unknown origin) using ATP as substrate by transcreener ADP assay based fluorescence correlation spectroscopic analysis; type: single protein
[2] = target: T1, Serine/threonine-protein kinase D1 (Homo sapiens, UniProt Q15139); assay: Inhibition of full length GST-tagged human PRKD1 expressed in Baculovirus expression system using ATP as substrate incubated for 1 to 2 hrs by transcreener ADP assay based fluorescence correlation spectroscopic analysis
T1 sequence (Q15139 whole entry): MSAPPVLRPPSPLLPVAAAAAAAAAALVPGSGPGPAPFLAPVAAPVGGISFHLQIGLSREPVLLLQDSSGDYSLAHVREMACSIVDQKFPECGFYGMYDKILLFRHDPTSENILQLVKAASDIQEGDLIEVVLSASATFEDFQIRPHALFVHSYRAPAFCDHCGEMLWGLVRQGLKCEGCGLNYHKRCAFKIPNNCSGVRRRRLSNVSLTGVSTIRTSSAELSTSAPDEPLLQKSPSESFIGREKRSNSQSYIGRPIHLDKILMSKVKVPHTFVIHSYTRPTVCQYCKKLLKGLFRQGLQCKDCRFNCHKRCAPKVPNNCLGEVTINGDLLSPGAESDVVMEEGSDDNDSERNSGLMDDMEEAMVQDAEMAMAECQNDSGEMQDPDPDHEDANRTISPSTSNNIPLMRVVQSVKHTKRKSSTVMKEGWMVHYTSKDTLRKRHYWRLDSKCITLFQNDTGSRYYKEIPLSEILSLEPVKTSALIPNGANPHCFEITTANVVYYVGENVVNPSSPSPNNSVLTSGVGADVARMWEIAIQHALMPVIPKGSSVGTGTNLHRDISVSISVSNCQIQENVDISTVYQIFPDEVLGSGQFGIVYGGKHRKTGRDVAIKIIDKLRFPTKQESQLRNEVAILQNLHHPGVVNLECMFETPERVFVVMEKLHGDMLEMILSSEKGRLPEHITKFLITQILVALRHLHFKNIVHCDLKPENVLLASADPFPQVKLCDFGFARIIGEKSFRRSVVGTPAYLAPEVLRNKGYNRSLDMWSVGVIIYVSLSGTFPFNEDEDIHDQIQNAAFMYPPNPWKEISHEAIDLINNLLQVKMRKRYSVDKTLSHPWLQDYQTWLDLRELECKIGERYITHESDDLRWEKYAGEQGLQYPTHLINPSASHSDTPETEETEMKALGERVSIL

[3] = Kinetic solubility of the compound; type: physicochemical; details: read-out: Kinetic_solubility
[4] = target: Aurora kinase B (Homo sapiens) (UniProt Q96GD4); assay: Inhibition of full length His-tagged recombinant human AURKB expressed in Baculovirus expression system at 0.1 uM using Fluorescein-PKC as substrate incubated for 1 hr by TR-FRET assay relative to control
Sequence of Aurora kinase B (Homo sapiens) (Q96GD4 whole entry): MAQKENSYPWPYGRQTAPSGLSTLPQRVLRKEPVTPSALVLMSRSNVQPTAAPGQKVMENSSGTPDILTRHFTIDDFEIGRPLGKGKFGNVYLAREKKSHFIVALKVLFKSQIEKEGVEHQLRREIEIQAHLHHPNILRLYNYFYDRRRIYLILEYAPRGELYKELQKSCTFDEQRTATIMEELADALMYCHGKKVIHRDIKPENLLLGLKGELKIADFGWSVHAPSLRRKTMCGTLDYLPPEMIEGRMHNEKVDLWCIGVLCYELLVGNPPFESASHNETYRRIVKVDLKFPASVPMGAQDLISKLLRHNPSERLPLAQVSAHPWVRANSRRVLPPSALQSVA

[5] = Lipophilicity, log D of the compound at pH 7.4; type: physicochemical; details: buffer
[6] = target: RAC-alpha serine/threonine-protein kinase (Homo sapiens) (UniProt P31749); assay: Inhibition of full length His-tagged recombinant human AKT1 expressed in Baculovirus expression system at 0.1 uM using Fluorescein-Crosstide as substrate incubated for 1 hr by TR-FRET assay relative to control
Sequence of RAC-alpha serine/threonine-protein kinase (Homo sapiens) (P31749 whole entry, the tested form may be a part): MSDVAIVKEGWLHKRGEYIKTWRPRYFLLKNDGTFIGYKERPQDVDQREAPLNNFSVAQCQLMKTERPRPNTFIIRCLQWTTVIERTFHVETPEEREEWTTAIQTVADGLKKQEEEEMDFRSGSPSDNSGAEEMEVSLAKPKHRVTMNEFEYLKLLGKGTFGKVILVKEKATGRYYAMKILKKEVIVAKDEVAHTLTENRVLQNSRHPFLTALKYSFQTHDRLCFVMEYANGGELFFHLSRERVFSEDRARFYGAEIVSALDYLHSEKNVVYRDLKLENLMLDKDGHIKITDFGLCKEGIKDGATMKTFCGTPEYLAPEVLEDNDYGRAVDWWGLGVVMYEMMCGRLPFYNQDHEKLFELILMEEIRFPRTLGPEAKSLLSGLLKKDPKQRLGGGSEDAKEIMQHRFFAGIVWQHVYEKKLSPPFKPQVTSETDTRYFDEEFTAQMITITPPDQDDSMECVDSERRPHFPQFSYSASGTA

[7] = target: Misshapen-like kinase 1 (Homo sapiens) (UniProt Q8N4C8); assay: Inhibition of recombinant GST-tagged human MINK1 catalytic domain (1 to 320 residues) expressed in Baculovirus expression system at 0.1 uM using Fluorescein-PKC as substrate incubated for 1 hr by TR-FRET assay relative to control
Sequence of Misshapen-like kinase 1 (Homo sapiens) (Q8N4C8 whole entry, looked up, the tested form may be a part): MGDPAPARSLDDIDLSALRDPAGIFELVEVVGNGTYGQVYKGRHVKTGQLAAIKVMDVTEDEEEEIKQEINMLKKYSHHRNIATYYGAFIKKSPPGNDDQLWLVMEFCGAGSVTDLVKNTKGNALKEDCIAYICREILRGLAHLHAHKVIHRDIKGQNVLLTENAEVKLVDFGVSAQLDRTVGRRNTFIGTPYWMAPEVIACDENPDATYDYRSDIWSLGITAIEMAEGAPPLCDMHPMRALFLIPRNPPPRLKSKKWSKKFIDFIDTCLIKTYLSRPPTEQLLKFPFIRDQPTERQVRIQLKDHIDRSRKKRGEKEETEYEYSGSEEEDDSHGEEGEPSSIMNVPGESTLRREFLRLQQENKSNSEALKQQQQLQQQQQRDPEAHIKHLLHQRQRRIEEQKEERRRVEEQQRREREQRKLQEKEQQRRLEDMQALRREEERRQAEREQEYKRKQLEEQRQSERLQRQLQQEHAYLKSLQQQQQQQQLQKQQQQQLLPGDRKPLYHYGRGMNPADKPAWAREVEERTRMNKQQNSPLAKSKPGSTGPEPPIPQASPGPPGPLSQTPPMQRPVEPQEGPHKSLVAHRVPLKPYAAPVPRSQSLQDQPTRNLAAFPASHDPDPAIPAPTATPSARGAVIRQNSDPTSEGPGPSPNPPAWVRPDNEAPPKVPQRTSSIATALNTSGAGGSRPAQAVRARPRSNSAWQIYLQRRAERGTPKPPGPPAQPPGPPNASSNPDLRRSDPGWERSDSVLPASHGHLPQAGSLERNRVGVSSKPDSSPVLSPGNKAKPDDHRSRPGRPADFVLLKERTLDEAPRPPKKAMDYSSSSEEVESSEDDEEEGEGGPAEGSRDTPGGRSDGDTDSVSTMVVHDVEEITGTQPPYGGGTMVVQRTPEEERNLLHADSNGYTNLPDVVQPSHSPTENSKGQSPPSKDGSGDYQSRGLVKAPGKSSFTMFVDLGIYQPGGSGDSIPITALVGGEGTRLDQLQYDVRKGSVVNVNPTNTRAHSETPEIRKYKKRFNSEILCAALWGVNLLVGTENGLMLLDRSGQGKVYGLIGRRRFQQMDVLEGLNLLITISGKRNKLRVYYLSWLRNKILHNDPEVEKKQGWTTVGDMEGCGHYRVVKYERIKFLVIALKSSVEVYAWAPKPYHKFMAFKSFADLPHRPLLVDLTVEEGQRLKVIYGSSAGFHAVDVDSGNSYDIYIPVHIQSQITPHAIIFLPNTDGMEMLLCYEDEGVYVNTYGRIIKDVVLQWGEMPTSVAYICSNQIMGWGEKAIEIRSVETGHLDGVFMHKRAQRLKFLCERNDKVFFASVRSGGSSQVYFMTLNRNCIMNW

[8] = target: Mitogen-activated protein kinase kinase kinase kinase 4 (Homo sapiens) (UniProt O95819); assay: Inhibition of recombinant GST-tagged human MAP4K4 catalytic domain (1 to 328 residues) expressed in Baculovirus expression system at 0.1 uM using Fluorescein-PKC as substrate incubated for 1 hr by TR-FRET assay relative to control
Sequence of Mitogen-activated protein kinase kinase kinase kinase 4 (Homo sapiens) (O95819 2-1239 limits assumed): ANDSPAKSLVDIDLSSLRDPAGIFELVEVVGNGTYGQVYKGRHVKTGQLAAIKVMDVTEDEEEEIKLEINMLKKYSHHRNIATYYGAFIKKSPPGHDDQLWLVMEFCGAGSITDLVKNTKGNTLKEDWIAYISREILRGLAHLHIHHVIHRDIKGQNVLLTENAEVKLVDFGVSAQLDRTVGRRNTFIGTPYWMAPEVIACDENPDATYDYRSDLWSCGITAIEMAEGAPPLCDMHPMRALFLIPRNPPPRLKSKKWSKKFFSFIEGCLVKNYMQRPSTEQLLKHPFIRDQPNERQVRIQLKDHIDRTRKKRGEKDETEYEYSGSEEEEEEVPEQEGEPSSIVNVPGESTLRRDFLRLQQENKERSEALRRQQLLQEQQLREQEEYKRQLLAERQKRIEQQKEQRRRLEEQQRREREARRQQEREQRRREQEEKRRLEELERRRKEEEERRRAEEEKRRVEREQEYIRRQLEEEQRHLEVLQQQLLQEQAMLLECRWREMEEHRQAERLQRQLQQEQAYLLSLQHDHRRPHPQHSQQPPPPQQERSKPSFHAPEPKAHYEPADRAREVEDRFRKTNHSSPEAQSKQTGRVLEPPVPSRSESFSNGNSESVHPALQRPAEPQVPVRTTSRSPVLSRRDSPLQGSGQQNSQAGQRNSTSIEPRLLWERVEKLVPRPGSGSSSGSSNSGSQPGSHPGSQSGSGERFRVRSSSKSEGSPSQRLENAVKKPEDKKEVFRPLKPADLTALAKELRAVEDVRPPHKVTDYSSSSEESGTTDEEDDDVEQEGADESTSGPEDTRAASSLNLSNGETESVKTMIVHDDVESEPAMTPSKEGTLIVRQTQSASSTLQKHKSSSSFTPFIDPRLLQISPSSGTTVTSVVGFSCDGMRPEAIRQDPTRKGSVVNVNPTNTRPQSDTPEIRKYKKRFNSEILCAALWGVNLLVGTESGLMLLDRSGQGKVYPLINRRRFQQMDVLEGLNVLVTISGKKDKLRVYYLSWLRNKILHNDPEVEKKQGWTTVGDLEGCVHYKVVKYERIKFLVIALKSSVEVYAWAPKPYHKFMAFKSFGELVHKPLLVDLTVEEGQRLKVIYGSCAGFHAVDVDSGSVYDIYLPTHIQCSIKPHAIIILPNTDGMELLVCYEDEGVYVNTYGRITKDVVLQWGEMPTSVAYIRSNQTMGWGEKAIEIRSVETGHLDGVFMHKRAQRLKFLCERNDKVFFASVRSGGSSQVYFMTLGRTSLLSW

[9] = target: Tyrosine-protein kinase JAK1 (Homo sapiens) (UniProt P23458); assay: Inhibition of recombinant GST-tagged human JAK1 catalytic domain (866 to 1154 residues) expressed in Baculovirus expression system at 0.1 uM using GFP-STAT1 as substrate incubated for 1 hr by TR-FRET assay relative to control
[10] = target: T2, Serine/threonine-protein kinase D1 (Homo sapiens) (UniProt Q15139); assay: Inhibition of full length GST-tagged recombinant human PRKD1 expressed in Baculovirus expression system at 0.1 uM using Fluorescein-CREBtide as substrate incubated for 1 hr by TR-FRET assay relative to control
T2 sequence (whole entry): T1 sequence (Q15139 whole entry)

[11] = target: Serine/threonine-protein kinase PAK 4 (Homo sapiens) (UniProt O96013); assay: Inhibition of recombinant GST-tagged human PAK4 catalytic domain (295 to 591 residues) expressed in Baculovirus expression system at 0.1 uM using Fluorescein-Crosstide as substrate incubated for 1 hr by TR-FRET assay relative to control
Sequence of Serine/threonine-protein kinase PAK 4 (Homo sapiens) (O96013 whole entry, looked up, the tested form may be a part): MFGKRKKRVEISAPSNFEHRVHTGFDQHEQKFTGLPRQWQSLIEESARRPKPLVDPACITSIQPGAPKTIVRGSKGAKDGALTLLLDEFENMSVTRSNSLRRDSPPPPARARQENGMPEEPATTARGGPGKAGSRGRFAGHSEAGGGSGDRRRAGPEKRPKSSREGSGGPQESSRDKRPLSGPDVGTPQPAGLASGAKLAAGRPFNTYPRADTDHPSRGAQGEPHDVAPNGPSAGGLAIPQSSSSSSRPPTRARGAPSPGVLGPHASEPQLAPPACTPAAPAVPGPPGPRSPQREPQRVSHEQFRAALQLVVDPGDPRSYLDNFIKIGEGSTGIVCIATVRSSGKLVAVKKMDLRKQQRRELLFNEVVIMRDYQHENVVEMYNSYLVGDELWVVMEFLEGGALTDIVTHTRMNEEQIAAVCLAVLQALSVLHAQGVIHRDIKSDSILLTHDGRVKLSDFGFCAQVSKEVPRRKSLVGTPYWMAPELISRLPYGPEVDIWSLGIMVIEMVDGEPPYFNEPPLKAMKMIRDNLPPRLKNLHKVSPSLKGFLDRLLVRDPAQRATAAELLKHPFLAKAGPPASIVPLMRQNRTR

Sequence of Mitogen-activated protein kinase kinase kinase 14 (Q99558 whole entry): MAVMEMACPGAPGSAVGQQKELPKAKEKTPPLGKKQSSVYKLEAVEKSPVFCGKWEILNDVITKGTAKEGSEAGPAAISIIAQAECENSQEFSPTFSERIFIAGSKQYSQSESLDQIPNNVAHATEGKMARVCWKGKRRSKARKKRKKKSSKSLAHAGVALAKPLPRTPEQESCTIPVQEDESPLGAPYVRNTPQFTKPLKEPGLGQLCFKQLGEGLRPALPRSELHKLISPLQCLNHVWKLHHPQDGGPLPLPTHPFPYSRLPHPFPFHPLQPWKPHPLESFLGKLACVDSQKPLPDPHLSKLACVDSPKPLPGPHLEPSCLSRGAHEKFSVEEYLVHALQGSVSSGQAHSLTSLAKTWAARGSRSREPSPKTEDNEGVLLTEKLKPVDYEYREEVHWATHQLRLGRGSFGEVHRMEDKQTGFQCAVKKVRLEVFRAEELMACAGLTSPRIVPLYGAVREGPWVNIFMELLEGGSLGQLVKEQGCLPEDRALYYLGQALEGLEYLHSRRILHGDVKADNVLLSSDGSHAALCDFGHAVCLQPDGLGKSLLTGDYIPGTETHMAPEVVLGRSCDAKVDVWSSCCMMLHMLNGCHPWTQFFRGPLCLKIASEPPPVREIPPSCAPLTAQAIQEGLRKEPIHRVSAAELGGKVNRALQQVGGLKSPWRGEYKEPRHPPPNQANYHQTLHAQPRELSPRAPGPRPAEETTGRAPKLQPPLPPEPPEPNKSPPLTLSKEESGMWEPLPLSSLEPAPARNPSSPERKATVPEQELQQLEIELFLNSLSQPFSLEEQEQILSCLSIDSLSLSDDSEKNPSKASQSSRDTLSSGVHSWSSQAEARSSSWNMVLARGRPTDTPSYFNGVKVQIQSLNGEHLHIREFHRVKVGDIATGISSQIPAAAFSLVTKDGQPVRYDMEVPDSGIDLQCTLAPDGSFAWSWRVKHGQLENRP

Cc1cc([C@@](C)(O)C#Cc2ccc3c(c2)-c2nc(C(N)=O)cn2CCO3)no1
Ki [1]: > 250 nM
Ki [2]: 14 nM

Cc1cnc(C(C)(C)C#Cc2ccc3c(c2)-c2nc(C(N)=O)c(C4CC4)n2C2CC3C2)o1
solubility kinetic [3]: 35 µM (≈ 14.9 µg/mL)
inhibition [4]: > 40%
Ki [1]: > 1250 nM
Ki [2]: < 0.2 nM
logD [5]: 4.4

Cc1cc([C@@](C)(O)C#Cc2ccc3c(c2)-c2nc(C(N)=O)c(C4CC4)n2CCO3)no1
solubility kinetic [3]: 124 µM (≈ 51.9 µg/mL)
inhibition [6]: 4%
Ki [1]: ≥ 1250 nM
inhibition [7]: 20%
Ki [2]: < 0.2 nM
inhibition [8]: 21%
inhibition [9]: 1%
logD [5]: 2
inhibition [10]: > 30%
inhibition [11]: 7%

Cc1cc([C@](C)(O)C#Cc2cc3c(cc2F)C2CC(C2)n2cc(C(N)=O)nc2-3)no1
Ki [1]: 1 nM
Ki [2]: 5.9 nM

Cc1cc([C@@](C)(O)C#Cc2ccc3c(c2)-c2nc(C(N)=O)cn2C2CC3C2)no1
Ki [1]: 582 nM
Ki [2]: 65 nM

CNC(=O)c1c(C(N)=O)nc2n1C1CC(C1)c1ccc(C#CC(C)(C)c3ncc(C)o3)cc1-2
solubility kinetic [3]: 13 µM (≈ 5.77 µg/mL)
inhibition [4]: 45%
Ki [1]: > 1250 nM
inhibition [7]: 51%
Ki [2]: < 0.2 nM
inhibition [8]: 57%
logD [5]: 3.7
inhibition [10]: Active

Cc1cc([C@](C)(O)C#Cc2ccc3c(c2)-c2nc(C(N)=O)cn2CCO3)no1
Ki [1]: 3.1 nM
Ki [2]: 4.9 nM

Cc1cnc([C@@](C)(O)C#Cc2ccc3c(c2)-c2nc(C(N)=O)cn2C2CC3C2)o1
Ki [2]: 4.2 nM

CCOc1nc2ccc(C#C[C@@](C)(O)c3ncc(C)o3)cc2n1-c1ccnc(N)n1
Ki [1]: 0.16 nM
Ki [2]: 3.6 nM

CNC(=O)c1c(C(N)=O)nc2n1C1CC(C1)c1cc(F)c(C#C[C@@](C)(O)c3cc(C)on3)cc1-2
Ki [1]: 14 nM

Cc1cnc([C@](C)(O)C#Cc2ccc3c(c2)-c2nc(C(N)=O)cn2C2CC3C2)o1
Ki [2]: < 0.2 nM

Cc1cc([C@](C)(O)C#Cc2cc3c(cc2F)C2CC(C2)n2c-3nc(C(N)=O)c2C2CC2)no1
Ki [2]: < 0.2 nM
logD [5]: 3.7

CCOc1nc2ccc(C#C[C@](C)(O)c3ncc(C)o3)cc2n1-c1ccnc(N)n1
Ki [1]: 634 nM
Ki [2]: 62 nM

NC(=O)c1cn2c(n1)-c1cc(C#CC3CCCC3)ccc1C1CC2C1
Ki [1]: > 1250 nM
Ki [2]: 44 nM

NC(=O)c1cn2c(n1)-c1cc(C#CC3(O)CCCC3)ccc1C1CC2C1
Ki [1]: 10 nM
Ki [2]: 25 nM

Cc1cc([C@](C)(O)C#Cc2ccc3c(c2)-c2nc(C(N)=O)cn2C2CC3C2)no1
Ki [1]: 0.8 nM
Ki [2]: 0.9 nM
